Positions count from the first letter of the chain named. Names may count otherwise.
Experiments:
[1] = target: T1, Phn(GHIJK)2 closed, Zn2+ site at the PhnI-PhnJ interface (His site) (Escherichia coli, UniProt P16687+P16688); assay: cryo-EM structure, […] Å; format: binding; settings: co-purified ligand modelled from density, identity not confirmed by mass spectrometry, absent in open state
T1 construct: class without PhnL density from the purified wild-type Phn(GHIJKL)2 sample (pRBS01, TEV-treated PhnK Strep-tag); with Alpha-D-ribose 1-methylphosphonate 5-triphosphate synthase subunit PhnH

[2] = target: T2, Phn(GHIJKL)2, PhnK nucleotide-binding site (Escherichia coli, UniProt P16678); assay: cryo-EM structure, […] Å; settings: ATP turnover (1.5 mM ATP, 6 mM MgCl2, 37 °C, 15 s); post-hydrolysis state, ADP + Pi in PhnK site
T2 construct: hetero-dodecamer, 327 kDa, expressed in E. coli Lemo21 from pRBS01 (phn genes from pBW120); C-terminal TEV-2xStrep-tag on PhnK, TEV-treated for wild-type cryo-EM sample; with Alpha-D-ribose 1-methylphosphonate 5-triphosphate synthase subunit PhnL; Alpha-D-ribose 1-methylphosphonate 5-phosphate C-P lyase; Alpha-D-ribose 1-methylphosphonate 5-triphosphate synthase subunit PhnI; Alpha-D-ribose 1-methylphosphonate 5-triphosphate synthase subunit PhnH

[3] = target: T3, Phn(GHIJKL)2, PhnK nucleotide-binding site (Escherichia coli, UniProt P16678, E171Q); assay: cryo-EM structure, […] Å; settings: 5 mM AMPPNP, 5 mM MgCl2, pH 7.5; both PhnK sites, closed dimer; PhnL empty
T3 construct: hetero-dodecamer, 327 kDa, expressed in E. coli Lemo21 from pRBS01 (phn genes from pBW120); C-terminal TEV-2xStrep-tag on PhnK, TEV-treated for wild-type cryo-EM sample; with Alpha-D-ribose 1-methylphosphonate 5-triphosphate synthase subunit PhnL; Alpha-D-ribose 1-methylphosphonate 5-phosphate C-P lyase; Alpha-D-ribose 1-methylphosphonate 5-triphosphate synthase subunit PhnI; Alpha-D-ribose 1-methylphosphonate 5-triphosphate synthase subunit PhnH

[4] = target: T4, Phn(GHIJKL)2 (ATPase assay) (Escherichia coli, UniProt P16678+P16679); settings: 1 or 5 mM ATP, Mg2+, pH 7.5, 37 °C (coupled assay); hydrolysis by PhnK and PhnL
T4 construct: gene phnK

[5] = target: T5, Phn(GHIJKL)2 (ATPase assay) (Escherichia coli, UniProt P16678+P16679, P16678:E171Q); settings: 1 or 5 mM ATP, Mg2+, pH 7.5, 37 °C (coupled assay); hydrolysis by PhnK and PhnL
T5 construct: gene phnK

[6] = target: Phn(GHIJKL)2, PhnL nucleotide-binding site (Escherichia coli, UniProt P16679); settings: ATP turnover (1.5 mM ATP, 6 mM MgCl2, 37 °C, 15 s); both PhnL sites, dimer open; PhnK holds ADP + Pi
[7] = target: the molecule itself; assay: cryo-EM structure; wild type Phn(GHIJKL)2 purified as a complex with ATP and EDTA, then 1.5 mM ATP and 6 mM MgCl2, 15 s at 37 °C (ATP turnover); 3D classes: Phn(GHIJKL)2 with ADP + Pi, Phn(GHIJK)2 closed, Phn(GHIJK)2 open
[8] = target: the molecule itself; assay: cryo-EM structure; Phn(GHIJKL)2-PhnK E171Q co-expressed from the phnGHIJKLMNOP plasmid and purified as a complex on StrepTrap with AMPPNP; 2.5 mg/mL; 25 mM HEPES/KOH pH 7.5, 125 mM KCl, 5 mM MgCl2, 5 mM BME

Molecule: O=P(O)(O)OC[C@H]1O[C@@H]2OP(=O)(O)O[C@@H]2[C@@H]1O [5-phospho-α-D-ribose-1,2-cyclic-phosphate]
- cryo-EM structure, 2.0 Å [1]: we were able to model the ligand as 5-phospho-α-D-ribose-1,2-cyclic-phosphate

Molecule: Nc1ncnc2c1ncn2[C@@H]1O[C@H](COP(=O)(O)OP(=O)(O)O)[C@@H](O)[C@H]1O [ADP]
- cryo-EM structure, 1.9 Å [2]: contains ADP and Pi and consequently represents a true ATP post-hydrolysis state

Molecule: Nc1ncnc2c1ncn2[C@@H]1O[C@H](COP(=O)(O)OP(=O)(O)NP(=O)(O)O)[C@@H](O)[C@H]1O [AMPPNP]
- cryo-EM structure, 2.1 Å [3]: clear density for AMPPNP allowed for modelling of a nucleotide in both active site pockets

Molecule: Nc1ncnc2c1ncn2[C@@H]1O[C@H](COP(=O)(O)OP(=O)(O)OP(=O)(O)O)[C@@H](O)[C@H]1O [ATP]
- ion exchange of nucleotides; coupled pyruvate kinase / lactate dehydrogenase ATP [4]: clear ATPase activity for the wildtype PhnGHIJKL complex
- ion exchange of nucleotides; coupled pyruvate kinase / lactate dehydrogenase ATP [5]: we observed a significantly reduced ATPase activity
- cryo-EM structure, 1.9 Å [6]: binding of ATP to both nucleotide binding sites in PhnL

B1: PhnL (natural protein, Escherichia coli)
chain: MINVQNVSKTFILHQQNGVRLPVLNRASLTVNAGECVVLHGHSGSGKSTLLRSLYANYLPDEGQIQIKHGDEWVDLVTAPARKVVEIRKTTVGWVSQFLRVIPRISALEVVMQPLLDTGVPREACAAKAARLLTRLNVPERLWHLAPSTFSGGEQQRVNIARGFIVDYPILLLDEPTASLDAKNSAAVVELIREAKTRGAAIVGIFHDEAVRNDVADRLHPMGASS
notes: PhnL, non-transporter ABC protein of the Escherichia coli phn operon; untagged; β hairpin extension residues 7-14; Identified in the complex by mass spectrometry and by the EM density; also called PhnL subunit; ABC module PhnL; source: E. coli Lemo21 (pRBS01 or pRBS01-PhnK E171Q), co-expressed, purified as part of the complex through Strep-tagged PhnK
- binding result [7]: binds

B2: PhnI (natural protein, Escherichia coli)
chain: MYVAVKGGEKAIDAAHALQESRRRGDTDLPELSVAQIEQQLNLAVDRVMTEGGIADRELAALALKQASGDNVEAIFLLRAYRTTLAKLAVSEPLDTTGMRLERRISAVYKDIPGGQLLGPTYDYTHRLLDFTLLANGEAPTLTTADSEQQPSPHVFSLLARQGLAKFEEDSGAQPDDITRTPPVYPCSRSSRLQQLMRGDEGYLLALAYSTQRGYGRNHPFAGEIRSGYIDVSIVPEELGFAVNVGELLMTECEMVNGFIDPPGEPPHFTRGYGLVFGMSERKAMAMALVDRALQAPEYGEHATGPAQDEEFVLAHADNVEAAGFVSHLKLPHYVDFQAELELLKRLQQEQNHG
notes: PhnI, subunit of carbon-phosphorus lyase, Escherichia coli phn operon; untagged, encoded on the expression plasmid; Whole phn genes amplified from pBW120; also called PhnI subunit of the C–P lyase core complex
- binding result [7]: binds

B3: PhnK E171Q with a C-terminal TEV-2xStrep-tag (natural protein, Escherichia coli)
chain: MNQPLLSVNNLTHLYAPGKGFSDVSFDLWPGEVLGIVGESGSGKTTLLKSISARLTPQQGEIHYENRSLYAMSEADRRRLLRTEWGVVHQHPLDGLRRQVSAGGNIGERLMATGARHYGDIRATAQKWLEEVEIPANRIDDLPTTFSGGMQQRLQIARNLVTHPKLVFMDQPTGGLDVSVQARLLDLLRGLVVELNLAVVIVTHDLGVARLLADRLLVMKQGQVVESGLTDRVLDDPHHPYTQLLVSSVLQN
notes: PhnK, non-transporter ABC protein of the Escherichia coli phn operon, with the Walker B mutation E171Q; also called Phn(GHIJKL)2-PhnK E171Q; not shown: 2xStrep-tag (after a TEV site), C-terminal, kept
- binding result [8]: binds

B4: PhnK wild type, TEV-2xStrep-tag removed with TEV protease (natural protein, Escherichia coli)
chain: B3 chain with Q171E
notes: PhnK, non-transporter ABC protein of the Escherichia coli phn operon; Residues of the TEV site probably stay at the C-terminus after cleavage; also called wild type PhnK; not shown: 2xStrep-tag (after a TEV site), C-terminal, cleaved
- binding result [7]: binds

From PMC9947105, “Structural remodelling of the carbon–phosphorus lyase machinery by a dual ABC ATPase” (Nature Communications, 2023)
